Laboratory results published in paper PMC10004634 (PLOS ONE, 2023).
Read-outs that look alike come from different tables or passages of the source.

What was measured:
Test in all cases: biochemical
Set-up in all cases: KINOMEscan scanMAX competition binding, DNA-tagged kinases, qPCR read-out, percent control at 300 nM
[1] = biological target: PRKD2 (Homo sapiens, UniProt Q9BZL6)
[2] = biological target: T1, ERK8 (Homo sapiens, UniProt Q8TD08)
T1 construct: gene MAPK15

[3] = biological target: EGFR(T790M) (Homo sapiens, UniProt P00533, T790M)
[4] = biological target: T2, PFTK1 (Homo sapiens, UniProt O94921)
T2 construct: gene CDK14
T2 sequence (O94921 whole entry): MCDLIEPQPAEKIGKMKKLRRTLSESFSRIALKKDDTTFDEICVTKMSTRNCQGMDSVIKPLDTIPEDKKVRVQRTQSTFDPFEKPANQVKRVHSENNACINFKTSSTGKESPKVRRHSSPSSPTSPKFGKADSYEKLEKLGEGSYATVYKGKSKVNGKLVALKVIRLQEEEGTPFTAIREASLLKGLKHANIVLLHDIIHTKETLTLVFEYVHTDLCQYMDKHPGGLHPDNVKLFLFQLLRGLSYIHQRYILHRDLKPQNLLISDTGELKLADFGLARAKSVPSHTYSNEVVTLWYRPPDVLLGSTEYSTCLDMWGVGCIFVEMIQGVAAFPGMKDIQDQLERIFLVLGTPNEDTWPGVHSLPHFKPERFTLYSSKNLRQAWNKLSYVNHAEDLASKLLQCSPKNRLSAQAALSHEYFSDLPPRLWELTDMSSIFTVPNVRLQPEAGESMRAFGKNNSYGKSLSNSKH

[5] = biological target: T3, PKAC-alpha (Homo sapiens, UniProt P17612)
T3 construct: gene PRKACA

[6] = biological target: FLT3(D835Y) (Homo sapiens, UniProt P36888, D835Y)
[7] = biological target: MAP3K2 (Homo sapiens, UniProt Q9Y2U5)
[8] = biological target: T4, HPK1 (Homo sapiens, UniProt Q92918)
T4 construct: gene MAP4K1
T4 sequence (Q92918 whole entry): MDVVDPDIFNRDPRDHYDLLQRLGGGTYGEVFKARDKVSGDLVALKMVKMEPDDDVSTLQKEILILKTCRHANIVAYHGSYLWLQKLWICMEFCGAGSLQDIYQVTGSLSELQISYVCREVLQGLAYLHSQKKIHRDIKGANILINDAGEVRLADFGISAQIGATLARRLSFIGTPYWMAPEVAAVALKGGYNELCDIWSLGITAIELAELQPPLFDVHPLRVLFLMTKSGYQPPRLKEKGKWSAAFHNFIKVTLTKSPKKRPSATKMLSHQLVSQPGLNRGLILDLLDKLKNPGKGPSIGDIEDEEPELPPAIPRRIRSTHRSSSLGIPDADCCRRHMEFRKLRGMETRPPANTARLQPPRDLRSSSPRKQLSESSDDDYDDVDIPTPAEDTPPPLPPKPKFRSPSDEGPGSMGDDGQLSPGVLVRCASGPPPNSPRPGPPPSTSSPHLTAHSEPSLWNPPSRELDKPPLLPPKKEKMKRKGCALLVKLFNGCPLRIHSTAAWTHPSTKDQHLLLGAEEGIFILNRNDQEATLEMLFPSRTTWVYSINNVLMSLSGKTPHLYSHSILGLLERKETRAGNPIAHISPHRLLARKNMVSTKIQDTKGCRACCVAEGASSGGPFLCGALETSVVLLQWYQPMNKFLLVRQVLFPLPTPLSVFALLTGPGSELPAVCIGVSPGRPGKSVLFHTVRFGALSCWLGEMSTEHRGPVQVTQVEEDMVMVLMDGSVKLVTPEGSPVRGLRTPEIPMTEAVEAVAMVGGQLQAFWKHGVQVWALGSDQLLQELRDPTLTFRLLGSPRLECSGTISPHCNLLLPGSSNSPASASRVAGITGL

[9] = biological target: T5, SgK110 (Homo sapiens, UniProt P0C264)
T5 construct: gene SBK3

[10] = biological target: EPHA8 (Homo sapiens, UniProt P29322)
Sequence of EPHA8 (P29322 whole entry): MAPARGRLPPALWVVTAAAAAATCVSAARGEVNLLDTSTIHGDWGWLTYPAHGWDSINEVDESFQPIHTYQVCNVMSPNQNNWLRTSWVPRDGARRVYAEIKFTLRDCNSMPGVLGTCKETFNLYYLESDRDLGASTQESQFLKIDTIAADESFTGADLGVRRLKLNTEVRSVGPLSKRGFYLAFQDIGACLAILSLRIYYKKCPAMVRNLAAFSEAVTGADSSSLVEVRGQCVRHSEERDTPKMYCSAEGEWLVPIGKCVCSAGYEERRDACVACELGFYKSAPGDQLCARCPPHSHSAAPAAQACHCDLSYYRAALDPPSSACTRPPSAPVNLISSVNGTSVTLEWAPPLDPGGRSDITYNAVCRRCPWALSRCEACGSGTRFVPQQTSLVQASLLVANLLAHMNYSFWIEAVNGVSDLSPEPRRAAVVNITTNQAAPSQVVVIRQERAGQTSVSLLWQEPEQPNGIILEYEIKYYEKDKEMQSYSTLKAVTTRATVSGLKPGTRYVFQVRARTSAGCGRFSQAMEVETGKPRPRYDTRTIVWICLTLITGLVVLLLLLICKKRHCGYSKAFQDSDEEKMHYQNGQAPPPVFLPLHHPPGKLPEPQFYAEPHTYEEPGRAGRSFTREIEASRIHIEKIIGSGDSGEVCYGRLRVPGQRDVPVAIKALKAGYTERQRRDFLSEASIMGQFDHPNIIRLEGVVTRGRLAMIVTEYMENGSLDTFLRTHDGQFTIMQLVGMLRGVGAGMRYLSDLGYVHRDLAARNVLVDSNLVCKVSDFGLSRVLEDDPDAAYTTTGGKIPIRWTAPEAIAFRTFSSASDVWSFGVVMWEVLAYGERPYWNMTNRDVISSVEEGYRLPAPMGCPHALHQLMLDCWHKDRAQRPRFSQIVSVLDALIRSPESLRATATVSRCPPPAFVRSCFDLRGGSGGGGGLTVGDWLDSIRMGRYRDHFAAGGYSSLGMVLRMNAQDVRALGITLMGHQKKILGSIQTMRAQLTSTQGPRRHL

[11] = biological target: PIK3CA(H1047L) (Homo sapiens, UniProt P42336, H1047L)
[12] = biological target: TAOK3 (Homo sapiens, UniProt Q9H2K8)
[13] = biological target: T6, NIM1 (Homo sapiens, UniProt Q8IY84)
T6 construct: gene NIM1K
T6 sequence (Q8IY84 whole entry): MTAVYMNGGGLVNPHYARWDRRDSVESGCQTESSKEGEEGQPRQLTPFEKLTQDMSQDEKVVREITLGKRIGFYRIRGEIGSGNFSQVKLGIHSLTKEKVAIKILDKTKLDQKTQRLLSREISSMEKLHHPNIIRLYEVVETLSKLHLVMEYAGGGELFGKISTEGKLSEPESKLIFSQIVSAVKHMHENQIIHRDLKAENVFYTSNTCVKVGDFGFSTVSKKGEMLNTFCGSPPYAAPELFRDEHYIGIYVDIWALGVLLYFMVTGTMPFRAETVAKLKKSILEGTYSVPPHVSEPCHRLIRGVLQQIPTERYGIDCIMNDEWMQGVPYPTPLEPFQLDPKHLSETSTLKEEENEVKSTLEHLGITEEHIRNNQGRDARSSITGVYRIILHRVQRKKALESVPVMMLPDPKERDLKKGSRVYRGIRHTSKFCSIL

[14] = biological target: T7, RSK2(Kin.Dom.1-N-terminal) (Homo sapiens, UniProt P51812)
T7 construct: gene RPS6KA3; Kin.Dom.1-N-terminal

[15] = biological target: MAP3K4 (Homo sapiens, UniProt Q9Y6R4)
Sequence of MAP3K4 (Q9Y6R4 whole entry): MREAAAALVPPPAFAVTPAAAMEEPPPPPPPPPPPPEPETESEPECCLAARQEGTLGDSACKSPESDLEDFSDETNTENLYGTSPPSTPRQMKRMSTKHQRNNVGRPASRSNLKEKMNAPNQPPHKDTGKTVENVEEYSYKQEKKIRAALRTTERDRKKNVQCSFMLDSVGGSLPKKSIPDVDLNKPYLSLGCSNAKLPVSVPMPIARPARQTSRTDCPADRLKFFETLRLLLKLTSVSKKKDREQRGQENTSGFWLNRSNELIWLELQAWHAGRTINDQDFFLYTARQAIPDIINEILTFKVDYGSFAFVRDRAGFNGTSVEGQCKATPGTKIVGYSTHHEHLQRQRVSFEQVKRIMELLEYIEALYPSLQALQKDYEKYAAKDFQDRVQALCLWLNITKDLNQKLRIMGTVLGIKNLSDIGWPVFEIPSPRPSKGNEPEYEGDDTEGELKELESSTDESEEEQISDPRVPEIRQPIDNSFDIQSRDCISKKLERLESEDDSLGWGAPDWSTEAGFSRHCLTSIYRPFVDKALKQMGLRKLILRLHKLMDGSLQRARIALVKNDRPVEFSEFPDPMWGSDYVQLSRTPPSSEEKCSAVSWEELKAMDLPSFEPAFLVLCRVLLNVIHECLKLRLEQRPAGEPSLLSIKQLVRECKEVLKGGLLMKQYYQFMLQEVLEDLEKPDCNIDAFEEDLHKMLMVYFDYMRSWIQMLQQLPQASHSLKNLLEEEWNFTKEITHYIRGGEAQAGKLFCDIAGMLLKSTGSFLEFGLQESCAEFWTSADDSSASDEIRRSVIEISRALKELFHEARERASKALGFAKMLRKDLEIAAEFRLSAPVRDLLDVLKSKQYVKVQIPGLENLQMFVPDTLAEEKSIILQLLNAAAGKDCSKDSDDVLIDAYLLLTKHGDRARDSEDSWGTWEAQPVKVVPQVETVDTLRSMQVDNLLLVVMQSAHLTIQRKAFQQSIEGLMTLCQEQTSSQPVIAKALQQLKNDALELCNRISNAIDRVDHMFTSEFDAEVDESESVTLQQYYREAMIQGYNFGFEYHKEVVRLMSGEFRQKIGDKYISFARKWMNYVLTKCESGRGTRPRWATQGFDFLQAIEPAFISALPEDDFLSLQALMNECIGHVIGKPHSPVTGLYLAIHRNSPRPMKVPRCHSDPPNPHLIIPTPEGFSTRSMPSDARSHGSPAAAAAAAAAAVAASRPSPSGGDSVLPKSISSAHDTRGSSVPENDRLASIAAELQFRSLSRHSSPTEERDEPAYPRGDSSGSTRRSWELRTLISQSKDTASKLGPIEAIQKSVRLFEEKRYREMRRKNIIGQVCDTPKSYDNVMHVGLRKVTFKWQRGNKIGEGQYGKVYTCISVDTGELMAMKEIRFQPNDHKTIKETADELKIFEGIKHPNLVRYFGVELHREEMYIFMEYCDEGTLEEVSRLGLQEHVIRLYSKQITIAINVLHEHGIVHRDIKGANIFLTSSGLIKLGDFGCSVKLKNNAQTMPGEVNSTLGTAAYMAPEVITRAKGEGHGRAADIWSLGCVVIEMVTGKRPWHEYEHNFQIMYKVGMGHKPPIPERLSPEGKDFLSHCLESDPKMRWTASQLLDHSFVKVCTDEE

[16] = biological target: T8, ABL1(Q252H)-phosphorylated (Homo sapiens, UniProt P00519, Q252H)
T8 construct: phosphorylated

[17] = biological target: BMPR1A (Homo sapiens, UniProt P36894)
[18] = biological target: T9, HUNK (Homo sapiens, UniProt P57058)
T9 sequence (P57058 1-714): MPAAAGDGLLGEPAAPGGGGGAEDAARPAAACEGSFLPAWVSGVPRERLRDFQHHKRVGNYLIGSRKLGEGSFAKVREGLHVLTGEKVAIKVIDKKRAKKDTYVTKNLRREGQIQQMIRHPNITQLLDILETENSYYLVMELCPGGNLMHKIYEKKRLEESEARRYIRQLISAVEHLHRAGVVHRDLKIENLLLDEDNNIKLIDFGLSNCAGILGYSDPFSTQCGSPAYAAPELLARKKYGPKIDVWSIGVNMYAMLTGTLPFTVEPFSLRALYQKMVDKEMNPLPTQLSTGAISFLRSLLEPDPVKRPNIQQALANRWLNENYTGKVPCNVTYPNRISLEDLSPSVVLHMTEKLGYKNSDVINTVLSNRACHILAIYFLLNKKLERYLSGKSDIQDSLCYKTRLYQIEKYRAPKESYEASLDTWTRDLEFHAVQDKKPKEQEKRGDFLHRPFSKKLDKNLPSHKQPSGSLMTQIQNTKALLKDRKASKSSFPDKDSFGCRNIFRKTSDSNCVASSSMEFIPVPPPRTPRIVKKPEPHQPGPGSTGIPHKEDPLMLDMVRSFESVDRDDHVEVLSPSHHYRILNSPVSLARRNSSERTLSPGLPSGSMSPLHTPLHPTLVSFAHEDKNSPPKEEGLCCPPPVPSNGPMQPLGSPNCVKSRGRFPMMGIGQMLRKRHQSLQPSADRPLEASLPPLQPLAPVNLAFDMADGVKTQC

[19] = read-out: Percent control / Acalabrutinib
[20] = read-out: Percent control / Ibrutinib
[21] = read-out: Percent control / Tirabrutinib
[22] = read-out: Percent control / Zanubrutinib

T1 sequence (Q8TD08 whole entry): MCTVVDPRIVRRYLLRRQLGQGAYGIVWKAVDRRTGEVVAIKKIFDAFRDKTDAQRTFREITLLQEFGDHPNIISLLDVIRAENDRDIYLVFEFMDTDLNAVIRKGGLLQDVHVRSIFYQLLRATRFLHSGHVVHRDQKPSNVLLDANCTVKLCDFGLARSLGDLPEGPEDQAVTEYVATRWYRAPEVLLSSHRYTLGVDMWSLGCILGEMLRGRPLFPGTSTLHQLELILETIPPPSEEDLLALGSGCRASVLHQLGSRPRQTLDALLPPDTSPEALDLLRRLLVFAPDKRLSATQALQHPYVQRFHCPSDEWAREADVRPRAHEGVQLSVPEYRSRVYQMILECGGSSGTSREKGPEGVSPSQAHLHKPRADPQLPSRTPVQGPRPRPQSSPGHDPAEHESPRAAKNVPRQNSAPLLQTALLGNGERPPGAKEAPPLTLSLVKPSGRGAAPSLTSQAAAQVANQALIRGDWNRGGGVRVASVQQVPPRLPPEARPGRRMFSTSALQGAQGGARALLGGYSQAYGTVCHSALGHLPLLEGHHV

## CC#CC(=O)N1CCC[C@H]1c1nc(-c2ccc(C(=O)Nc3ccccn3)cc2)c2c(N)nccn12 [Acalabrutinib]
[1]; [19]
  remaining binding at 0.3 µM: 70%
[2]; [19]
  remaining binding at 0.3 µM: 88%
[3]; [19]
  remaining binding at 0.3 µM: 93%
[4]; [19]
  remaining binding at 0.3 µM: 89%
[5]; [19]
  remaining binding at 0.3 µM: 99%
[6]; [19]
  remaining binding at 0.3 µM: 82%
[7]; [19]
  remaining binding at 0.3 µM: 97%
[8]; [19]
  remaining binding at 0.3 µM: 93%
[9]; [19]
  remaining binding at 0.3 µM: 94%
[10]; [19]
  remaining binding at 0.3 µM: 96%
[11]; [19]
  remaining binding at 0.3 µM: 90%
[12]; [19]
  remaining binding at 0.3 µM: 99%
[13]; [19]
  remaining binding at 0.3 µM: 99%
[14]; [19]
  remaining binding at 0.3 µM: 84%
[15]; [19]
  remaining binding at 0.3 µM: 78%
[16]; [19]
  remaining binding at 0.3 µM: 86%

## C=CC(=O)N1CCC[C@@H](n2nc(-c3ccc(Oc4ccccc4)cc3)c3c(N)ncnc32)C1 [Ibrutinib]
[17]; [20]
  remaining binding at 0.3 µM: 99%
[18]; [20]
  remaining binding at 0.3 µM: 9%
[12]; [20]
  remaining binding at 0.3 µM: 98%

## CC#CC(=O)N1CC[C@@H](n2c(=O)n(-c3ccc(Oc4ccccc4)cc3)c3c(N)ncnc32)C1 [Tirabrutinib]
[3]; [21]
  remaining binding at 0.3 µM: 75%
[18]; [21]
  remaining binding at 0.3 µM: 11%
[16]; [21]
  remaining binding at 0.3 µM: 87%

## C=CC(=O)N1CCC([C@@H]2CCNc3c(C(N)=O)c(-c4ccc(Oc5ccccc5)cc4)nn32)CC1 [Zanubrutinib]
[1]; [22]
  remaining binding at 0.3 µM: 100%
[2]; [22]
  remaining binding at 0.3 µM: 87%
[4]; [22]
  remaining binding at 0.3 µM: 92%
[5]; [22]
  remaining binding at 0.3 µM: 99%
[17]; [22]
  remaining binding at 0.3 µM: 90%
[6]; [22]
  remaining binding at 0.3 µM: 47%
[7]; [22]
  remaining binding at 0.3 µM: 85%
[8]; [22]
  remaining binding at 0.3 µM: 100%
[9]; [22]
  remaining binding at 0.3 µM: 91%
[10]; [22]
  remaining binding at 0.3 µM: 90%
[11]; [22]
  remaining binding at 0.3 µM: 100%
[13]; [22]
  remaining binding at 0.3 µM: 97%
[14]; [22]
  remaining binding at 0.3 µM: 82%
[15]; [22]
  remaining binding at 0.3 µM: 75%
